From patent US7326685B2, “Diagnostic or therapeutic somatostatin or bombesin analog conjugates and uses thereof” (The Administrators of the Tulane Educational Fund, priority 2001, dated 2008)
Like-named read-outs stand apart in the source and are kept apart here.

What was measured:
[1] = cited from earlier work
[2] = cited from earlier work; remark: listed apart in the source
[3] = ×5 in mice; cited from earlier work
[4] = tested on: neuroblastoma IMR-32 cells; test: CellTiter 96 tumor cell proliferation assay; format: cell-based; settings: conjugate compared to non-conjugated methotrexate
Method: A CellTiter 96 cell proliferation kit was used according to the described protocols (Promega Corporation, Madison, Wis.)). Culture medium (50 μl) containing various concentrations of different peptides was added respectively in each well of the 96-well kit plates followed by 50 μl of a suspension containing 5,000 cultured IMR-32 tumor cells. The plate was incubated at 37° C. for different times up to and including 7 days in a humidified, 5% CO2 atmosphere. Kit dye solution (15 μl ) was added to each well and the plate incubated the plates at 37° C. for 4 hours in a humidified, 5% CO2 atmosphere. After 4 hours, 100 μl of the solubilization/stop solution were added to each well and incubation was continued at 37° C. for 1 hour or more until complete solubilization of the formazan crystals occurred. Absorbencies of individual well solutions were then measured at 570 nm wavelength using a 96 well plate reader.

[5] = 1×iv, mice; cited from earlier work
[6] = molecular target: GH release from primary cultures of rat pituitary cells (somatostatin subtype 2 rat receptor related system) (Rattus norvegicus, UniProt P30680); test: Inhibition of GH release from primary cultures of rat pituitary cells; format: cell-based; settings: GH stimulated with 1 nM GRH(1-29)NH2, 3 h
Method: This is a primary system for evaluating SRIF analog potency and can be considered a somatostatin subtype 2 rat receptor related system which historically also correlates well with human subtype 2 binding.
Anterior pituitaries from adult male rats weighing 200-250 g and housed under controlled conditions (lights on from 0500-1900 h), are dispersed using aseptic techniques by a trypsin/DNase method. The dispersed cells are diluted with sterile-filtered Dulbecco's modified Eagle medium (MEM) (Gibco Laboratories, Grand Island, N.Y. (GIBCO)), which is supplemented with 2.5% fetal calf serum (GIBCO), 3% horse serum (GIBCO), 10% fresh rat serum (stored on ice for no longer than 1 h) from the pituitary donors, 1% MEM nonessential amino acids (GIBCO), gentamycin (10 ng/ml; Sigma), and nystatin (10,000 U/ml; GIBCO). The cells are counted with a hemacytometer (approximately 2,000,000 cells per pituitary) and randomly plated at a density of 200,000 cells per well (Co-star cluster 24; Rochester Scientific Co., Rochester, N.Y.). […]
In preparation for a hormone challenge, the cells are washed 3× with medium 199 (GIBCO) to remove old medium and floating cells. […] GH in plasma and media is measured by a standard double antibody RIA using components supplied by the NIDDK and the National Hormone and Pituitary Program.

[7] = rat, in vivo, ip
Method: The solution was divided into three equal parts not exceeding 2 mL and injected intraperitoneally into each rat. Urine and feces were collected on an adsorbent pad overnight. At 24 hours, the rats were killed, dissected and each of the below organs were weighed and counted in a dose calibrator.

Chain of GH release from primary cultures of rat pituitary cells (somatostatin subtype 2 rat receptor related system) (P30680 whole entry): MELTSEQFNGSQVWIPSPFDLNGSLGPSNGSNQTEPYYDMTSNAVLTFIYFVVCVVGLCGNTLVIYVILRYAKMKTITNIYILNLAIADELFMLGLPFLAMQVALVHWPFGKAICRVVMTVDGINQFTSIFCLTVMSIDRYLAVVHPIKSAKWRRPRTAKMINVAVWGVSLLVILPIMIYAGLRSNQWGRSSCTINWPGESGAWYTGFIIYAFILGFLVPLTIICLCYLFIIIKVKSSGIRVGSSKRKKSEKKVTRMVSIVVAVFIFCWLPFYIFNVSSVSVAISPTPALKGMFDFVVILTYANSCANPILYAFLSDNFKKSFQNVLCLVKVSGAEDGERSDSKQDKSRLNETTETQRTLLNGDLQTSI

N.N.[Cl][Pt][Cl] [Cis-Pt]
MTD ([1]; in man): 100 mg/m^2

CC(=O)O[C@@]12CO[C@@H]1C[C@H](O)[C@@]1(C)C(=O)[C@H](O)C3=C(C)[C@@H](OC(=O)[C@H](O)[C@@H](NC(=O)OC(C)(C)C)c4ccccc4)C[C@@](O)([C@@H](OC(=O)c4ccccc4)[C@H]21)C3(C)C [Docetaxel]
MTD ([2]; in vivo): 60-100 mg/m^2

O=c1[nH]c(=O)n([C@H]2C[C@H](O)[C@@H](CO)O2)cc1F [FUDR]
MTD ([1]; in human i.a.): 0.6 mg/kg/day | MTD [3]: 100 mg/kg

Nc1nc(F)nc2c1ncn2[C@@H]1O[C@H](COP(=O)(O)O)[C@@H](O)[C@@H]1O [Fludarabine-P04]
MTD ([2]; ×5 days): 25 mg/m^2/day

NC(=O)NO [Hydroxyurea]
MTD ([1]; in man): 35 mg/kg/day

O=c1[nH]cc(F)c(=O)[nH]1 [Peptide 5-FU, 5-FU]
MTD ([2]; ×5 days): 500 mg/m^2/day

CCCCCOC(=O)Nc1nc(=O)n([C@@H]2O[C@H](C)[C@@H](O)[C@H]2O)cc1F [capecitabine]
MTD ([2]; orally): 2.5 g/m^2

N.N.O=C([O-])C1(C(=O)[O-])CCC1.[Pt+2] [carbo-Pt]
MTD ([1]; in man): 360 mg/m^2

Nc1ccn([C@@H]2O[C@H](CO)[C@@H](O)[C@@H]2O)c(=O)n1 [cytarabine]
MTD ([2]; in vivo): 100 mg/m^2/day

COc1cc([C@@H]2c3cc4c(cc3[C@@H](O[C@@H]3O[C@@H]5CO[C@@H](C)O[C@H]5[C@H](O)[C@H]3O)[C@H]3COC(=O)[C@H]23)OCO4)cc(OC)c1O [etoposide]
MTD ([1]; in man): 100 mg/m^2

Nc1ccn([C@@H]2O[C@H](CO)[C@@H](O)C2(F)F)c(=O)n1 [gemcitabine]
MTD ([2]; in vivo): 1000 mg/m^2

CCc1c2c(nc3ccc(OC(=O)N4CCC(N5CCCCC5)CC4)cc13)-c1cc3c(c(=O)n1C2)COC(=O)[C@]3(O)CC [irinotecan]
MTD ([2]; 1×/wk depending on patient response): 50-150 mg/m^2

CN(Cc1cnc2nc(N)nc(N)c2n1)c1ccc(C(=O)N[C@@H](CCC(=O)O)C(=O)O)cc1 [methotrexate]
Inhibitory effects on proliferation of IMR-32 cells (potency comparison, FIG. 1) [4]: equivalent potencies | MTD ([2]; i.v. w/o leuco): < 500 mg/m^2 | MTD ([2]; i.v.+leuco.): 15 gm/m^2

O=C1c2c(O)ccc(O)c2C(=O)c2c(NCCNCCO)ccc(NCCNCCO)c21 [mitoxantrone]
MTD ([2]; in vivo): 12-14 mg/m^2

NC(=O)c1ncn2c(=O)n(CCCl)nnc12 [mitozolomide]
MTD ([2]; in vivo): > 400 mg/m^2

CC[C@@]1(O)C(=O)OCc2c1cc1n(c2=O)Cc2cc3c(CN(C)C)c(O)ccc3nc2-1 [topotecan]
MTD ([1]; in humans): 1.5 mg/m^2/day | LD10 [5]: 75 mg/m^2

CC[C@]1(O)C[C@H]2CN(CCc3c([nH]c4ccccc34)[C@@](C(=O)OC)(c3cc4c(cc3OC)N(C=O)[C@H]3[C@@](O)(C(=O)OC)[C@H](OC(C)=O)[C@]5(CC)C=CCN6CC[C@]43[C@@H]65)C2)C1 [vincristine]
MTD ([2]; in vivo): 1.4 mg/m^2

CCC1=C[C@@H]2CN(C1)Cc1c([nH]c3ccccc13)[C@@](C(=O)OC)(c1cc3c(cc1OC)N(C)[C@H]1[C@@](O)(C(=O)OC)[C@H](OC(C)=O)[C@]4(CC)C=CCN5CC[C@]31[C@@H]54)C2 [vinorelbine]
MTD ([2]; in vivo): 30 mg/m^2/wk

D-Ser-D-Ser-D-Ser-D-Ser-D-Ser-L-Lys-D-Tyr-D-Ser-cyclo[L-Cys-L-Phe-D-Trp-L-Lys-L-Thr-L-Cys]-L-Thr-NH2 [JF-08-53]
IC50 [6]: 0.086 nM | Elimination of labeled peptide in urine and feces (FIG. 2) [7]: rapid and high efficiency elimination

bleomycin
MTD ([2]; in vivo): 20 mg/m^2
